Measured values published in patent US5260271A, “Nisin compositions for use as enhanced broad range bactericides” (Applied Microbiology, Inc., priority 1992, dated 1993).

Key:
Listeria monocytogenes [1] = assay: Bactericidal activity towards Listeria monocytogenes in milk; type: cell-based; conditions: for % Survival 2 hr: L. monocytogenes in milk at 37° C.
Procedure: (§1) All tests in the following examples were performed at 37° C. The efficacy of the enhanced broad range bactericides was determined by assaying bactericidal activity as measured by the percent bacterial survival after treatment with the bactericide. Generally, after incubation of a 10^7 cell per ml suspension of target species with the novel bactericide for specified lengths of time, bacteria were collected by centrifugation for 2 minutes. […] Surviving bacteria were determined by scoring colony forming units (CFU) after incubation for 24-48 hours at 37° C. An effective bactericide according to this invention is one which allows less than 0.1% of the initial viable count of the bacteria to survive.
An example of where the application of nisin is limited by its available activity is illustrated by the data in Table 15B.
(§2) Incubations were in milk at 37° C.

K. pneumoniae = assay: Bactericidal activity, percent bacterial survival of K. pneumoniae suspension; type: cell-based, Klebsiella pneumoniae; conditions: Nisin 0, EDTA 20 mM, 20 mM Tris pH 8.0
Procedure: as §1, with “C.” for “C. An effective bactericide according to this invention is one which allows less than 0.1% of the initial viable count of the bacteria to survive.”
The effect was measured as a function of percentage bacterial survival after 2 hours.

Coryneform bacteria = assay: Bactericidal activity towards Coryneform bacteria; type: cell-based
Procedure: as §1
(§3) Incubations were performed in 20 mM TrisHCl, pH 8.0 at 37° C.

[2] = tested on: S. typhimurium on chicken muscle; assay: Bactericidal activity towards S. typhimurium on chicken muscle (unadhered cells); type: cell-based, Salmonella typhimurium
Procedure: Incubations were performed in either 50 mM sodium acetate, pH 5.0, or 20 mM Tris, pH 8.0 at 37° C.
Cubes of chicken muscle were cleansed with sodium hypochlorite and povidone iodine prior to use. To inoculate the tissue, the cubes of chicken muscle were dipped into a 10^8 cells/ml suspension of S. typhimurium in 20 mM Tris HCl, pH 8.0. Excess moisture was removed from dipped cubes by tapping. The chicken samples were placed into sufficient buffer containing the nisin composition to cover the tissue and incubated for 2 hours at 37° C. after which the tissue was removed to sufficient Phage buffer to cover the tissue. The bacteria remaining in the test solution were collected by centrifugation, washed with Phage buffer, and combined with bacteria washed from the tissue by Phage buffer. The combined samples (termed "unadhered" cells) were serially diluted and 100 μl aliquots were plated for determination of surviving bacteria.
(§4) Cubes of chicken muscle were cleansed with sodium hypochlorite and povidone iodine prior to use. To inoculate the tissue, the cubes of chicken muscle were dipped into a 10^8 cells/ml suspension of S. typhimurium in 20 mM Tris HCl, pH 8.0. Excess moisture was removed from dipped cubes by tapping. The tissue was placed into sufficient buffer containing the nisin compositions to cover the tissue, and incubated for 2 hours at 37° C. after which the tissue was removed to sufficient Phage buffer to cover the tissue. The bacteria remaining in the test solution were collected by centrifugation, washed with Phage buffer, and combined with bacteria washed from the tissue by Phage buffer. The combined samples (termed "unadhered" cells) were serially diluted and 100 μl aliquots were plated for determination of surviving bacteria.
as §4, with “cleaned” for “cleansed”, “50” for “20”, “sodium acetate buffer,” for “Tris HCl,”, “5.0.” for “8.0.”, “containing” for “containing the”

S. typhimurium = assay: Bactericidal activity, percent bacterial survival of S. typhimurium suspension; type: cell-based, Salmonella typhimurium; conditions: for % Survival at 2 hours: S. typhimurium
Procedure: as §1, with “C.” for “C. An effective bactericide according to this invention is one which allows less than 0.1% of the initial viable count of the bacteria to survive.”
The control (Test #1) is identical to the control of Example 1 (Table 1).

Streptococcus mutans = assay: Bactericidal activity and kinetics towards Streptococcus mutans in Tris buffer; type: cell-based; conditions: S. mutans, Nisin 0 with 1.0 mM EDTA, pH 7.3
Procedure: All tests in the following examples were performed at 37° C. The efficacy of the enhanced broad range bactericides was determined by assaying bactericidal activity as measured by the percent bacterial survival after treatment with the bactericide. Generally, after incubation of a 10^7 cell per ml suspension of target species with the novel bactericide for specified lengths of time, bacteria were collected by centrifugation for 2 minutes. The bacterial pellet was washed free of the bactericide with a rescue buffer, termed herein Phage buffer (50mM Tris-HCl buffer pH 7.8, 1 mM MgSO4, 4 mM CaCl2, 0.1 M Nacl, and 0.1% gelatin), resuspended and serially diluted into Phage buffer, and 100 μl of the suspended bacteria were spread on nutrient agar plates. Surviving bacteria were determined by scoring colony forming units (CFU) after incubation for 24-48 hours at 37° C.
The suspensions were incubated for various times ranging from 0.5 to 60 minutes with the bactericides.
Incubations were performed in 20 mM TrisHCl, pH 7.3 at 37° C.

Staphylococcus aureus = assay: Bactericidal activity towards Staphylococcus aureus, percent survival; type: cell-based; conditions: S. aureus
Procedure: as §1
Incubations were performed in 50 mM sodium acetate buffer, pH 5.0 or 20 m
TrisHCl buffer, pH 8.0 at 37° C.

E. coli = assay: Bactericidal activity, percent bacterial survival of E. coli suspension; type: cell-based, Escherichia coli; conditions: for Percentage E. coli Survival at 2 hours: 20 mM Tris pH 8.0
Procedure: as §1, with “C.” for “C. An effective bactericide according to this invention is one which allows less than 0.1% of the initial viable count of the bacteria to survive.”
The effects of the bactericide were measured as a function of percentage bacteria survival after 2 hours.
Incubations were performed in 20 mM Tris, […] at 37° C.

Listeria monocytogenes [3] = assay: Bactericidal activity towards Listeria monocytogenes in Tris buffer; type: cell-based; conditions: L. monocytogenes; pH 8.0, Nisin 0, EDTA 1.0 mM
Procedure: as §1, §3

Streptococcus agalactiae = assay: Bactericidal activity towards Streptococcus agalactiae in milk; type: cell-based; conditions: for % survival at 2h: S. agalactiae in milk at 37° C.
Procedure: as §1
However, the combination of the two agents, 0.1% monolaurin and nisin 0.2 μg/ml, is extremely potent towards S. agalactiae. […] Thus, when the application of nisin is limited by its available activity, a bactericide comprising nisin with a surfactant can be expected to be more useful.
as §2

## monooleate
Listeria monocytogenes [1]; Nisin 0, Monooleate 0.1%
  % Survival 2 hr: 67%
Listeria monocytogenes [1]; Nisin 0, Monooleate 1.0%
  % Survival 2 hr: 63%
Listeria monocytogenes [1]; monooleate by itself, in milk
  bactericidal activity towards L. monocytogenes: no bactericidal activity

## O=C(O)CN(CCN(CC(=O)O)CC(=O)O)CC(=O)O [EDTA]
K. pneumoniae
  % Survival at 2 hours: 22%
Coryneform bacteria; pH 8.0, Nisin 0, EDTA 0.3 mM
  % Survival 2 hr: 4.6%
Coryneform bacteria; pH 8.0, Nisin 0, EDTA 1.0 mM
  % Survival 2 hr: 3.6%
Coryneform bacteria; pH 8.0, Nisin 0, EDTA 3.0 mM
  % Survival 2 hr: 8%
Coryneform bacteria; pH 8.0, Nisin 0, EDTA 10 mM
  % Survival 2 hr: 36%
[2]; Table 9, chicken muscle, pH 8.0, Nisin 0, EDTA 1.0 mM, BSA 1.0%
  % Survival at 2 hours: 27%
[2]; Table 10, chicken muscle, Nisin 0, EDTA 10 mM, Methyl Paraben 0%, 50 mM Na acetate buffer, pH 5.0
  % Survival at 2 hours (Unadhered cells): 11.8%
[2]; chicken muscle, pH 5.0, Nisin 0, EDTA 10 mM
  % Survival at 2 hours (Unadhered cells): 6.4%
[2]; chicken muscle, pH 8.0, Nisin 0, EDTA 10 mM
  % Survival at 2 hours (Unadhered cells): 5.2%
S. typhimurium; Nisin 0, EDTA 20 mM, 20 mM Tris pH 8.0, 37° C
  Percentage S. typhimurium Survival at 3 hours: 2.5%
S. typhimurium; Nisin 0, EDTA 1.0 mM, BSA 1.0%, 20 mM Tris pH 8.0
  % Survival at 2 hours: 63%
S. typhimurium; pH 5.0 (50 mM sodium acetate), Nisin 0, EDTA 2.0 mM
  % Survival at 2 hours: 38.7%
S. typhimurium; pH 5.0, Nisin 0, EDTA 10 mM
  % Survival at 2 hours: 15.2%
S. typhimurium; pH 5.0, Nisin 0, EDTA 50 mM
  % Survival at 2 hours: 3.5%
S. typhimurium; pH 8.0 (20 mM Tris), Nisin 0, EDTA 2.0 mM
  % Survival at 2 hours: 8.7%
S. typhimurium; pH 8.0, Nisin 0, EDTA 10 mM
  % Survival at 2 hours: 14%
S. typhimurium; pH 8.0, Nisin 0, EDTA 50 mM
  % Survival at 2 hours: 11.4%
S. typhimurium; pH 8.0, Nisin 0, EDTA 100 mM
  % Survival at 2 hours: 45%
S. typhimurium; Table 3: Nisin 0, EDTA 20 mM, Tween20 0%, 20 mM Tris pH 8.0
  Percentage S. typhimurium Survival at 3 hours: 2.5%
Streptococcus mutans; incubation 3 min
  % Survival: 100%
Streptococcus mutans; incubation 60 min
  % Survival: 100%
Staphylococcus aureus; pH 5.0, Nisin 0, EDTA 3.0 mM
  % Survival 2 hr: 100%
Staphylococcus aureus; pH 8.0, Nisin 0, EDTA 0.3 mM
  % Survival 2 hr: 100%
Staphylococcus aureus; pH 8.0, Nisin 0, EDTA 1.0 mM
  % Survival 2 hr: 81%
Staphylococcus aureus; pH 8.0, Nisin 0, EDTA 3.0 mM
  % Survival 2 hr: 100%
Staphylococcus aureus; pH 8.0, Nisin 0, EDTA 10 mM
  % Survival 2 hr: 100%
Staphylococcus aureus; pH 8.0, Nisin 0, EDTA 30 mM
  % Survival 2 hr: 100%
E. coli; E. coli, Nisin 0, 1.0 mM EDTA, 20 mM Tris pH 7.0
  % survival at 1 min.: 100%
E. coli; Nisin 0, EDTA 20 mM, Triton X-100 0%
  Percentage E. coli Survival at 2 hours: 14.5%
Listeria monocytogenes [3]
  % Survival after 2 hr: 84%

## Triton X-100
E. coli; Nisin 0, EDTA 0 mM, Triton X-100 1.0%
  Percentage E. coli Survival at 2 hours: 100%
E. coli; Triton X-100 alone, tests #3 and #4 of Table 4
  bactericidal activity towards E. coli: no significant bactericidal activity

## CCCCCCCCCCCC(=O)OCC(O)CO (centres unmarked) [Monolaurin, monolaurin]
Streptococcus agalactiae; Nisin 0, Monolaurin 0.01%
  % survival at 2h: 100%
Streptococcus agalactiae; Nisin 0, Monolaurin 0.1%
  % survival at 2h: 4.5%
Streptococcus agalactiae; monolaurin at concentrations up to 0.1%, in milk
  bactericidal activity towards Streptococcus agalactiae: little significant bactericidal activity
